The target of experiment [1] is T1, HLE (human leucocyte elastase) (Homo sapiens, UniProt P08246).
T1 sequence (P08246 30-267): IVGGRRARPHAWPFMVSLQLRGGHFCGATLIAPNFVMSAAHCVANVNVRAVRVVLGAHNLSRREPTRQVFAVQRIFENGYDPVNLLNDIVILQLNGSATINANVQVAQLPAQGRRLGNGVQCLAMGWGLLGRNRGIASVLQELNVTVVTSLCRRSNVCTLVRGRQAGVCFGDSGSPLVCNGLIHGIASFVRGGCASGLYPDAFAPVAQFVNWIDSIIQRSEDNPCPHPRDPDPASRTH
Description: Measurement of HLE inhibition potency (kinact/Ki). The class given is biochemical. To be noted: measured for non-radioactive iodine-labelled compounds and unlabelled chelate conjugates. How it is done: Inhibitor potency against HLE is described by the parameter kinact/Ki as previously reported [Knight et al., Biochem., 8160-8170, (1992)]. Lyophilised enzyme was reconstituted with TrisHCl buffer, 100 mM, 0.5M NaCl at 0.05 units/ml (approximately nanomolar concentration) in a final reaction volume of 1 ml to which was added methoxysucc-ala-ala-pro-val-pNA substrate (1 mM) and the elastase inhibitor dissolved in DMSO. The reaction was monitored by detecting the change of absorbance at 410 nm (hydrolysis of the substrate releasing p-nitroaniline) over a timescale of 25 minutes. Values of kinact/Ki were estimated according to the Knight et al method.

In experiment [2] the test system is isolated human white cells (granulocytes; monocytes + lymphocytes). Description: In vitro cell uptake in isolated human white cells. The class given is cell-based. To be noted: for selectivity for granulocytes over a mixture of monocytes/lymphocytes: approximately equivalent numbers of monocytes/lymphocytes and granulocytes present; for % uptake in Gran. (granulocytes), WHITE CELLS / % uptake in Mon. (monocytes + lymphocytes), WHITE CELLS: isolated human white cells, 30 minutes at 37° C., radiolabelled compound. How it is done:
Fresh blood (30-120 ml) was anticoagulated with 1.5% ACD solution and sedimented by addition of 2 ml Hespan per 10 ml blood for 90 minutes at room temperature. The leucocyte rich platelet rich plasma supernatant was removed and centrifuged at 150 g for 5 minutes, yielding a leucocyte rich pellet and platelet rich plasma (PRP). The PRP was centrifuged at 4000 g to pellet the platelets leaving a cell free plasma (CFP). The leucocyte pellet was resuspended in a 50:50 mixture of HBSS and CFP and incubated with the radioactive compound for 30 minutes at 37° C. Free radioactive material was then removed from the cells by addition of an excess of HBSS:CFP and centrifugation of the leucocytes at 150 g for 7 minutes. The supernatant and cell pellet were taken for radioactive counting for calculation of percentage cell uptake. The distribution of radioactivity within the cell pellet was assessed by separation of the cell types using Percoll density gradient centrifugation (38%, 55% and 73% Percoll in HBSS step gradients). The residual plasma and free activity was recovered from the top of the gradient, the mononuclear cells (lymphocytes and monocytes) from the interface between 38% and 55%, and the granulocytes were recovered from the interface between 55% and 73% Percoll.

Experiment [3] deals with mixed human red/white cells (granulocytes, monocytes + lymphocytes, erythrocytes). The experiment in a line: In vitro cell uptake in mixed human red/white cells. The class given is cell-based. To be noted: radiolabelled compound. On the procedure: The radioactive compound was also incubated with an isolated leucocyte preparation to which an erythrocyte fraction had been added back. The packed erythrocytes obtained after blood sedimentation were washed twice with HBSS and then resuspended in their original blood volume with HBSS. Leucocytes obtained from 30 ml blood were resuspended in 0.5 ml erythrocyte suspension and 0.5 ml CFP. The cell suspension was then incubated with compound as above. Analysis of the distribution of activity in the cell pellet in the presence of red blood cells was carried out using Ficoll-Hypaque discontinuous density gradients (densities 1.04, 1.077 and 1.119 g/ml Histopaque steps).

From patent publication US6375926B1, “Labelled elastase inhibitors” (Amersham International PLC, priority 1996, dated 2002) come the findings set out here.

Molecules are shown by their SMILES.

`CCC1(CC)C(=O)N(C(=O)NCc2ccc(C(=O)NCC(C)(CNC(C)(C)C(C)=NO)CNC(C)(C)C(C)=NO)cc2)C1Oc1ccc(C(=O)N2CCN(C)CC2)cc1` (racemic) [Compound 38, Conjugate Between Chelate, 3,3,6,9,9-Pentamethyl-6-aminomethyl-4,8-diazaundecane-2,10-dionedioxime and 4-[4-[[(4-Methyl)piperazin-1-yl]carbonyl]phenoxy]-1-[(4-carboxy)benzylaminocarbonyl]-3,3-diethyl-2-azetidinone]: the Potency (1/(M·s)), kinact/Ki in experiment [1] worked out at 58500 M⁻¹ s⁻¹. In experiment [2], the “selectivity for granulocytes over a mixture of monocytes/lymphocytes” value (from here on “selectivity … of monocytes/lymphocytes”) was “some degree of selectivity for granulocytes”; the “% uptake in Gran. (granulocytes), WHITE CELLS” value is reported as 75.5%; the “% uptake in Mon. (monocytes + lymphocytes), WHITE CELLS” value stood at 8.5%. In experiment [3], the “% uptake in Eryth. (erythrocytes), WHITE AND RED CELLS” value (“% uptake in Eryth. (erythrocytes)” below) was determined as 28.4%; the “% uptake in Gran. (granulocytes), WHITE AND RED CELLS” value came to 32.5%; the “% uptake in Mon. (monocytes + lymphocytes), WHITE AND RED CELLS” value amounted to 6.7%.

With `CCC1(CC)C(=O)N(C(=O)NCCC(=O)NCC(C)(CNC(C)(C)C(C)=NO)CNC(C)(C)C(C)=NO)C1Oc1ccc(C(=O)N2CCN(C)CC2)cc1` (racemic) [Compound 42, Conjugate Between Chelate, 3,3,6,9,9-pentamethyl-6-aminomethyl-4,8-diazaundecane-2,10-dionedioxime and 4-[4-[[(4-Methyl)piperazin-1-yl]carbonyl]phenoxy]-1-[(2-carboxy)ethylaminocarbonyl]-3,3-diethyl-2-azetidinone], in experiment [1], the Potency (1/(M·s)), kinact/Ki was determined as 1400 M⁻¹ s⁻¹. In experiment [2], the “selectivity … of monocytes/lymphocytes” value is “some degree of selectivity for granulocytes”; the “% uptake in Gran. (granulocytes), WHITE CELLS” value is 8.4%; the “% uptake in Mon. (monocytes + lymphocytes), WHITE CELLS” value was determined as 1.2%. Moreover, in experiment [3], the “% uptake in Eryth. (erythrocytes)” value came out at 18.9%; the “% uptake in Gran. (granulocytes), WHITE AND RED CELLS” value is 2.5%; the “% uptake in Mon. (monocytes + lymphocytes), WHITE AND RED CELLS” value is reported as 6.9%.

Take `CCC1(CC)C(=O)N(C(=O)NCc2ccc(I)cc2)C1Oc1ccc(C(=O)N2CCN(C)CC2)cc1` (single isomer, unassigned) [Compound 4b]: in experiment [1], the Potency (1/(M·s)), kinact/Ki amounted to 1350 M⁻¹ s⁻¹. Also, in experiment [2], the “selectivity … of monocytes/lymphocytes” value was “some degree of selectivity for granulocytes”; the “% uptake in Gran. (granulocytes), WHITE CELLS” value was found to be 4.8%; the “% uptake in Mon. (monocytes + lymphocytes), WHITE CELLS” value turned out to be 0.9%. For the same compound, in experiment [3], the “% uptake in Eryth. (erythrocytes)” value is listed as 1.6%; the “% uptake in Gran. (granulocytes), WHITE AND RED CELLS” value is on record as 3.3%; the “% uptake in Mon. (monocytes + lymphocytes), WHITE AND RED CELLS” value was determined as 3.8%.

As to `CCC1(CC)C(=O)N(C(=O)NCCc2cc(I)c(O)c(I)c2)C1S(=O)(=O)CCOC` (stereo not shown) [Compound 17, 4-(2-Methoxyethylsulfonyl)-1-[(3,5-diiodo)(4-hydroxy)phenylethylaminocarbonyl]-3,3-diethyl-2-azetidinone], the kinact/KI in experiment [1] (read-out: Potency (M/sec), kinact/Ki) is 600 M⁻¹ s⁻¹. For the same compound, in experiment [2], the “selectivity … of monocytes/lymphocytes” value was “some degree of selectivity for granulocytes”; the “% uptake in Gran. (granulocytes), WHITE CELLS” value stood at 0.4%; the “% uptake in Mon. (monocytes + lymphocytes), WHITE CELLS” value was 0.0%.
